Results published in US11427595B2, “Compositions and methods for inhibiting viral infection” (Trustees of Boston University, priority 2018, dated 2022).

Assays:
[1] = test system: HCVpp; assay type: cell-based, Hepatitis C virus; settings: Huh7.5.1 cells, racemates and single (+)-enantiomers, 1 μM or 2 μM for 3 h, luciferase after 48 h
[2] = test system: JFH-1 HCVcc-Luc; test: microbe, parasite or virus in culture; assay type: cell-based, Hepatitis C virus; settings: for EC50: Hepatitis C virus, Huh-7.5.1, read-out: EC50, inhibition of HCV infection; for inhibition of HCV infection (in words): Huh7.5.1 cells, comparisons are to aglaroxin C (6)
[3] = test system: HCV internal ribosome entry site (IRES)-dependent Renilla luciferase (RLuc) translation; test: In vitro translation of bicistronic FF/HCV/Ren mRNA in Krebs-2 extracts, HCV IRES-dependent; assay type: biochemical, Hepatitis C virus; settings: 1 μM, relative to DMSO
Text: (§1) In this system, Firefly luciferase (FLuc) translation is cap-dependent whereas Renilla luciferase (RLuc) expression HCV-IRES dependent. […] Results are presented relative to values obtained in the presence of DMSO ad expressed as mean±error of two biological replicates.
(§2) In this system, translation of the Firefly luciferase (FLuc) translation is cap-dependent whereas Renilla luciferase (RLuc) translation is dependent upon the HCV internal ribosome entry site (IRES) FIG. 11A.
(§3) In vitro transcriptions and translations were performed as described previously. Plasmid encoding the bicistronic FF/HCV/Ren open reading frame was linearized with BamHI and m^7Gppp-capped mRNA was produced by in vitro transcription reactions using SP6 RNA polymerase. In vitro translation reactions were performed with S10 extracts prepared from Kreb-2 cells and programmed with 4 ng/uL of in vitro transcribed mRNA. Firefly (FF) and Renilla (Ren) luciferase activities were measured on a Berthold Lumat LB9507 Luminometer and values normalized against vehicle control, which was set at 1.

[4] = test system: CHIKVpp; assay type: cell-based, Chikungunya virus; settings: Huh7.5.1 cells, racemates and single (+)-enantiomers, 1 μM or 2 μM for 3 h, luciferase after 48 h
[5] = test system: VSVpp; assay type: cell-based, vesicular stomatitis virus
[6] = test system: Ebolapp; assay type: cell-based, Ebola virus
[7] = test system: HCV replicon cell line 2-3+ (full-length HCV Genotype 1b RNA genome); test: HCV replicon system: viral RNA replication and protein synthesis; assay type: cell-based, Hepatitis C virus; settings: 2 μM for 3 h; for HCV RNA replication: viral RNA by real-time PCR after 48 or 72 h; for HCV protein synthesis (translation): NS5 by Western blotting after 48 or 72 h
Protocol: HCV replicon cell line 2-3+ was treated with the indicated compounds for 3 h. Cells were incubated for an additional 48 hours (FIG. 10A and FIG. 10C) or 72 hours (FIG. 10B and FIG. 10D). Cellular RNA or protein was isolated for quantifications of HCV viral RNA by real-time PCR (FIG. 10A and FIG. 10B) or […] NS5 by Western blotting (FIG. 10C and FIG. 10D).
Next, the ability of the aglaroxin C analogues to inhibit HCV RNA replication and mRNA translation was investigated using an HCV replicon system which harbors a full-length HCV Genotype 1b RNA genome. In replicon cells, HCV RNA replicates and is translated into viral proteins without forming infectious viruses. […] To corroborate these findings, an in vitro translation inhibition assay was assembled where a bicistronic reporter mRNA was programmed for translation in Krebs-2 extracts FIG. 11A-11B.
Cells and Antibodies. The human liver cell line Huh7.5.1 was provided by Scripps Research Institute. The full-length HCV Genotype 1b-replicon-containing cell line 2-3(+) was a gift from University of North Carolina, Chapel Hill, N.C. The Aedes albopictus cell line C6/36 was purchased from American Type Culture Collection (ATCC) (CRL-1660). All cell lines were maintained in DMEM supplemented with 5% penicillin and streptomycin, 1% NEAA, and 10% fetal bovine serum (FBS) (Gemini Bio-Products). The β-actin antibody (clone AC-74) was purchased from Sigma. The HCV NS5A monoclonal antibody 9E10 was a gift from Rockefeller University. Secondary antibodies were purchased from Jackson ImmunoResearch Laboratories, Inc, and Molecular Probes (Invitrogen). Primer sequences are: Dengue 16681: F: 5′-[…]-3′ (SEQ ID NO: 3); R: 5′-[…]-3′ (SEQ ID NO: 4). GAPDH: F: 5′-[…]-3′ (SEQ ID NO: 5); R: 5′-[…]-3′ (SEQ ID NO: 6).

[8] = test system: HCVcc-Luc; test: HCVcc time-of-addition assay; assay type: cell-based, Hepatitis C virus; settings: Huh7.5.1 cells, 0.5 μM for 3 h, luciferase after 48 h
[9] = test system: Huh7.5.1 cells; test: MTS cell viability assay; assay type: cell-based, human; settings: 3 h treatment, 72 h incubation
Text: In this comparison, niclosamide was used as a positive control, which is known as HCV inhibitor (unclear mechanisms). Data from CellTiter-Glo assay was obtained from separate experiments conducted on a different date.
MTS (3-(4,5-dimethylthiazol-2-yl)-5-(3-carboxymethoxyphenyl)-2-(4-sulfophenyl)-2H-tetrazolium)) assay is a colorimetric assay used to determine the mitochondrial metabolic rate by quantifying the reduced formazan product of MTS in cells to reflect viable cells. To determine the CC50 of each compound, Huh7.5.1 cells were treated with compounds or DMSO at indicated doses for 3 h in 96-well plates. After removal of compounds, cells were further incubated for 72 h prior to conducting the viability assay. The MTS assay in this study is accordance with a protocol provided by manufacturer (Promega, Madison, Wis. USA). One-fifth volume of MTS reagent was added into the culture supernatant at indicated time points. Plates were incubated at 37° C. for 3 hours with 5% CO2 followed by measuring the absorbance at 490 nanometers (nm) with an ELISA reader (SpectraMax Plus 385, Molecular Devices, USA). Percentages of toxicity were calculated using the formulas: 100-percentage of vial cells relative to that from the dimethyl sulfoxide (DMSO) treated group (100%) (n=3) (FIG. 68-FIG. 71).

[10] = test system: cap-dependent Firefly luciferase (FLuc) translation; test: In vitro translation of bicistronic FF/HCV/Ren mRNA in Krebs-2 extracts, cap-dependent; assay type: biochemical; settings: 1 μM, relative to DMSO
Text: as §1, §2, §3

[11] = test system: Huh7.5.1 cells; test: Cytotoxicity, CellTiter-Glo Cell Viability Luminescent Assay; assay type: cell-based, human
Protocol: (§4) To determine the […] of each compound, Huh7.5.1 cells were treated with compounds or DMSO at indicated doses for 3 h in 96-well plates. After removal of compounds, cells were further incubated for 72 h prior to the viability assay. The numbers of viable cells in culture were determined using the CellTiter-Glo Cell Viability Luminescent Assay kit according to the manufacturer's instruction (Promega). Percentages of toxicity were calculated using the formulas: 100-percentage of vial cells relative to that from the dimethyl sulfoxide (DMSO) treated group (100%) (n=3) (FIG. 20-FIG. 57).

[12] = test system: Dengue virus (serotype 2, Thailand 16681 strain); assay type: cell-based; settings: Huh7.5.1 cells, MOI 0.1, 2 μM for 3 h, viral RNA 48 h post-infection normalized against GAPDH
[13] = Cytotoxicity, CellTiter-Glo Cell Viability Luminescent Assay; assay type: cell-based, human; settings: human; Huh7.5.1 cells, 3 h treatment, viability after 72 h; concentration giving 50% cell death
Protocol: as §4

[14] = test system: hepatitis C viral (HCV) entry into host cells; settings: separate earlier studies; cited from earlier work
[15] = test system: translation; settings: previous studies; cited from earlier work

Structure (SMILES) | inhibition of HCVpp infection [1] | EC50 [2] | inhibition of HCV infection (in words) [2] | HCV mRNA (IRES-dependent) translation [3] | inhibition of CHIKVpp infection [4] | inhibition of VSVpp infection [5] | inhibition of Ebolapp infection [6] | HCV RNA replication [7] | anti-HCV activity when added 3 h after infection was initiated [8] | anti-HCV activity when added together with the virus [8] | toxicity curve in MTS assay compared with CellTiter-Glo assay [9] | translation inhibition of firefly luciferase (cap-dependent) [10] | AUC0.2-200, area under the cytotoxicity curve (in words) [11] | HCV protein synthesis (translation) [7] | inhibition of Dengue virus infection [12] | maximum cytotoxicity plateau compared to racemic counterparts ([11]; Huh7.5.1 cells) | CC50 [13] | also measured
COc1ccc([C@@]23Oc4cc(OC)cc(OC)c4[C@]2(O)c2nc(-c4ccc(C)cc4)[nH]c(=O)c2[C@H]3c2ccccc2)cc1 (racemic) [12l, (5R,5aR,10bS)-10b-Hydroxy-8,10-dimethoxy-5a-(4-methoxyphenyl)-5-phenyl-2-(p-tolyl)-3,5,5a,10b-tetrahydro-4H-benzofuro[2′,3′:4,5]cyclopenta[1,2-d]pyrimidin-4-one] | specifically inhibited | ~0.5 µM | three-fold greater inhibition | not inhibited | specifically inhibited | not | not | neither inhibit HCV RNA replication | partially lost their activity | maximal anti-HCV activity | nearly identical toxicity curves | minimal | relatively lower cytotoxicities |  |  |  |  | 
COc1ccc([C@@]23Oc4cc(OC)cc(OC)c4[C@]2(O)c2nc(-c4cccc(OC)c4)[nH]c(=O)c2[C@H]3c2ccccc2)cc1 (racemic) [12s, (5R,5aR,10bS)-10b-Hydroxy-8,10-dimethoxy-2-(3-methoxyphenyl)-5a-(4-methoxyphenyl)-5-phenyl-3,5,5a,10b-tetrahydro-4H-benzofuro[2′,3′:4,5]cyclopenta[1,2-d]pyrimidin-4-one] | specifically inhibited | ~0.5 µM | three-fold greater inhibition | not inhibited | specifically inhibited | not | not | neither inhibit HCV RNA replication | partially lost their activity | maximal anti-HCV activity |  | minimal | relatively lower cytotoxicities |  |  |  |  | anti-HCV activity when added together with the virus ([8]; listed as (±)-12s): inhibited HCV infection
COc1ccc([C@@]23Oc4cc(OC)cc(OC)c4[C@]2(O)c2nc(-c4cccc(OC)c4)[nH]c(=O)c2[C@H]3c2ccccc2)cc1 [(+)-12s] |  |  | displayed HCV inhibition |  |  |  |  | did not inhibit |  |  |  |  |  | did not inhibit | inhibited Dengue virus infection | increased substantially |  | 
COc1ccc([C@@]23Oc4cc(OC)cc(OC)c4[C@]2(O)c2nc(-c4ccc(C(F)(F)F)cc4)[nH]c(=O)c2[C@H]3c2ccccc2)cc1 (racemic) [12o, (5R,5aR,10bS)-10b-Hydroxy-8,10-dimethoxy-5a-(4-methoxyphenyl)-5-phenyl-2-(4-(trifluoromethyl)phenyl)-3,5,5a,10b-tetrahydro-4H-benzofuro[2′,3′:4,5]cyclopenta[1,2-d]pyrimidin-4-one] |  | 0.24 µM |  |  |  |  |  |  |  |  | nearly identical toxicity curves |  |  |  |  |  | 10 µM | maximum cytotoxicity plateau, cell death ([11]; Huh7.5.1 cells, dose-response up to 200 μM): ~100%
COc1ccc([C@@]23Oc4cc(OC)cc(OC)c4[C@]2(O)c2nc(-c4ccc(C)cc4)[nH]c(=O)c2[C@H]3c2ccccc2)cc1 [(+)-12l] |  |  | displayed HCV inhibition |  |  |  |  | did not inhibit |  | inhibited HCV infection |  |  |  | did not inhibit | inhibited Dengue virus infection | increased substantially |  | 
COc1ccc([C@@]23Oc4cc(OC)cc(OC)c4[C@]2(O)c2nc4n(c(=O)c2[C@H]3c2ccccc2)CCC4)cc1 [compound 6, Aglaroxin C, reference compound] |  | 1.3 µM |  | not inhibited |  |  |  | neither inhibit HCV RNA replication | partially lost their activity | maximal anti-HCV activity |  | minimal |  |  |  |  | 12 µM | concentration inhibiting HCV entry into host cells [14]: low μM concentration; translation inhibition (in words) [15]: only moderate translation inhibition; cytotoxicity (in words) ([11]; Huh7.5.1 cells, comparisons are to aglaroxin C (6)): plateauing of cytotoxicity
